Assay results: publication PMC6920923, “Improving In Vivo Brain Delivery of Monoclonal Antibody Using Novel Cyclic Peptides” (Pharmaceutics, 2019)
Entries after “also recorded” stand apart in the source; their conditions may differ. Positions of bridges follow the written chain, without caps; N, C: chain ends. Residues, ends and D or L forms follow the SMILES beside them.

Columns and labels:
MDCK cell monolayers = settings: cited from earlier work
Experimental: Previously, cyclic cHAVc1 (cyclo(1,8)Ac-CSHAVASC-NH2) and cHAVc3 (cyclo(1,6)Ac-CSHAVC-NH2) were prepared and compared to a linear HAV4 (Ac-SHAVAS-NH2) in modulating the intercellular junctions in vitro and in vivo [19]. […] An alanine scanning study was carried out to evaluate the role of each amino acid in HAV6 peptide, and the biological activity of each alanine mutant peptide was evaluated in lowering the TEER values of MDCK cell monolayers. Mutation of the Ser1 to Ala1 residue reduced the junction modulatory activity of the HAV6 mutant; ...

EC1 domain of E-cadherin [1] = biological target: T1, EC1 domain of E-cadherin (Homo sapiens, UniProt P12830); assay: SPR binding to immobilized EC1 domain of E-cadherin; settings: authors' separate study; for Kd: EC1 immobilized on streptavidin chip via Streptag I at N-terminus
T1 sequence (P12830 155-262 limits assumed): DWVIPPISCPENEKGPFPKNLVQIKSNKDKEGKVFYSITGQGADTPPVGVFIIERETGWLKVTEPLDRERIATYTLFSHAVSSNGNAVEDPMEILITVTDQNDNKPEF
Text: However, it was not yet clear whether the difference in activity was due to additive activity by the two sequences (Thr-Pro-Pro-Val and Ser-His-Ala-Val) or domination by only one sequence. As mentioned above, there was a trend that cyclic ADTHAV was slightly better than ADTC5. Because it is difficult to differentiate the activities of cyclic ADTHAV and ADTC5 in vivo, we compared their binding properties to the EC1 domain of E-cadherin using SPR experiments in a separate study. After optimizing the SPR running conditions, the EC1 protein was immobilized on the streptavidin chip via the Streptag I sequence on the N-terminus of the EC1 domain followed by injection of various peptide concentrations. […] In the future, the mechanism of cyclic ADTHAV binding to the EC1-domains of E-cadherin and VE-cadherin will be evaluated.

brains of C57BL/6 mice = assay: In vivo brain delivery of IRdye800CW-IgG mAb (NIRF quantification); settings: n = 3; for amount of IgG mAb in the brain (brain deposition): IgG mAb 21.6 nmol/kg with or without 13 µmol/kg peptide, i.v. tail vein, 15 min circulation, PBS/0.5% Tween-20 perfusion, NIRF (Odyssey CLx) of brain homogenate, mean ± SEM; for brain delivery of IgG mAb compared to control (IgG mAb alone), in words: IgG mAb 21.6 nmol/kg, peptide 13 µmol/kg i.v., ANOVA Student–Newman–Keuls
Experimental: The activity of each peptide in enhancing BBB penetration was evaluated by delivering IRdye800CW donkey anti-goat IgG mAb in C57BL/6 mice; the amounts of mAb in the brain were determined using near infrared fluorescence (NIRF) imaging. Each group contains 3 mice per group (n = 3) with a mixture of male and female mice, selected randomly for each arm of the study. The injection solution was prepared by adding 600 µL PBS into 0.5 mg lyophilized IgG mAb; then, approximately 1.5 mg lyophilized peptide was added into the mixture yielding the injectable formulation. A 100 µL solution of a mixture containing IgG mAb (21.6 nmol/kg) along with 13 µmol/kg peptide was administered via tail vein. As a control, 100 µL of IgG mAb alone was administered via i.v. route. After the delivered molecules had been circulating for 15 min, the mice were sacrificed; then, a mixture of PBS with 0.5% Tween-20 was administered for cardiac perfusion to remove the blood and delivered molecules from the brain microvessels. The brain and other organs such as lung, heart, spleen, liver, and kidney were harvested and rinsed with PBS. The isolated organs were scanned with Odyssey® CLx for mAb quantification.
The brain deposition of IgG mAb was also quantified by NIRF imaging in brain homogenates. The isolated brains were mechanically homogenized in 2.0 mL of PBS. To make the standard solutions, IRDye800CW IgG mAb stock solution (70 µg/mL) was prepared; it was then diluted with various amounts of PBS to make six different mAb concentrations. To generate a calibration curve, the brain homogenate (200 µL) was aliquoted out to a 96-well plate. A total of 10 µL of each concentration of IgG mAb was added to three different wells of blank brain homogenates. The standard spiked homogenates were at a range of 10–200 ng/mL IgG mAb in brain homogenate. The wells were scanned using the Odyssey® CLx scanner, and the signal intensities vs. concentrations of mAb per gram of brain were used to generate a calibration curve.
ANOVA with Student–Newman–Keuls was used to compare the data for determining statistical significance for IgG mAb deposition in the brains. A p-value of less than 0.05 was used as a criterion for a significant difference in data comparison. Numeric results are presented as: mean ± SEM.
A calibration curve was generated to determine the amount of IgG mAb in the brain by spiking blank brain homogenates with a concentration range from 10 to 200 ng/mL, and good linearity with R^2 ≥ 0.98 was achieved. […] The average amounts of IgG mAb in the brains of HAV6-treated and control animals were 3.4 ± 0.4 and 4.0 ± 0.5 pmol/g brain, respectively. In contrast, the average amounts of mAb in the brains of cyclic HAVN1- and HAVN2-treated mice were 8.6 ± 0.5 and 8.8 ± 0.6 pmol/g brain, respectively. The BBB modulatory activities of ADTC5, linear ADTHAV, and cyclic ADTHAV were also compared to the control (Figure 5). […] The average brain deposition of IgG mAb were 11.8 ± 0.5, 15.7 ± 0.8, and 13.3 ± 0.7 pmol/g brain for linear ADTHAV, cyclic ADTHAV, and ADTC5, respectively.

EC1 domain of E-cadherin [2] = assay: SPR; EC1 protein immobilised on a streptavidin chip via the Streptag I sequence on its N-terminus; various peptide concentrations injected

For “Ac-SHAVAS-NH2 [HAV4, earlier linear HAV peptide]”, the “junction modulatory activity of HAV6 analogues (alanine scan), in words” value (MDCK cell monolayers; lowering TEER of MDCK cell monolayers, ref [34]) is given as “enhanced modulatory activity of the peptide compared to HAV6”.

For `CC(=O)N[C@H]1CSSC[C@@H](C(N)=O)NC(=O)[C@H](C(C)C)NC(=O)[C@@H]2CCCN2C(=O)[C@@H]2CCCN2C(=O)[C@H]([C@@H](C)O)NC(=O)[C@H](CC(=O)O)NC1=O` [ADTC5, Cyclo(1,7)Ac-CDTPPVC-NH2] (Ac-CDTPPVC-NH2; disulfide 1-7), the Kd (EC1 domain of E-cadherin [1]) was 26.8 µM.

In the case of `CC(C)[C@@H]1NC(=O)[C@H](C)NC(=O)[C@H](Cc2c[nH]cn2)NC(=O)[C@H](CO)NC(=O)[C@H](C(C)C)NC(=O)[C@@H]2CCCN2C(=O)[C@@H]2CCCN2C(=O)[C@H]([C@@H](C)O)NC1=O` [cyclic ADTHAV, Cyclo(1,8)TPPVSHAV] (cyclo(TPPVSHAV)), the “BBB modulatory activity to deliver IgG mAb compared to cyclic HAVN2, in words” value (brains of C57BL/6 mice; 13 µmol/kg peptide, 15 min) is reported as “significantly better than that of cyclic HAVN2”, the “amount of IgG mAb in the brain (brain deposition)” value (“amount of IgG mAb in the brain” below) (brains of C57BL/6 mice) is reported as 15.7 ± 0.8 pmol/g brain and the “brain delivery of IgG mAb compared to control (IgG mAb alone), in words” value (brains of C57BL/6 mice; 15 min) is reported as “significantly better than in the PBS control”. The Kd (EC1 domain of E-cadherin [1]) was 0.114 µM, the “binding affinity to EC1 domain of E-cadherin vs ADTC5, in words” value (EC1 domain of E-cadherin [1]) was “higher binding affinity” and the “binding affinity to EC1 domain of E-cadherin vs ADTC5, in words” value (EC1 domain of E-cadherin [1]; listed as Cyclic ADTHAV) was “better binding affinity to the EC1 domain of E-cadherin than does ADTC5”.

In the case of Ac-TPPVSHAV-NH2 [linear ADTHAV], the “amount of IgG mAb in the brain” value (brains of C57BL/6 mice) is reported as 11.8 ± 0.5 pmol/g brain and the “brain delivery of IgG mAb compared to control (IgG mAb alone), in words” value (brains of C57BL/6 mice; 15 min) is reported as “significantly better than in the PBS control”.

In the case of “Cyclo(1,6)SHAVSS (head to tail) [HAVN1, N-to-C-termini cyclo-hexapeptide derived from HAV6]”, the “BBB modulatory activity / IgG mAb brain delivery compared to HAV6, in words” value (brains of C57BL/6 mice; 13 µmol/kg peptide, 15 min) is reported as “significantly enhanced; also recorded: improvement in the BBB modulatory activity; also recorded: better BBB modulatory effects than their linear counterpart, HAV6”, the “amount of IgG mAb in the brain” value (brains of C57BL/6 mice) is reported as 8.6 ± 0.5 pmol/g brain and the “brain delivery of IgG mAb compared to control (IgG mAb alone), in words” value (brains of C57BL/6 mice; 15 min) is reported as “significantly enhanced”.

In the case of “cyclo(1,8)Ac-CSHAVASC-NH2 (disulfide) [cHAVc1, earlier cyclic HAV peptide]”, the “junction modulatory activity in MDCK cell monolayers, in words” value (MDCK cell monolayers; compared to HAV4 (and cHAVc1), ref [19]) is given as “same junction modulatory activity as HAV4 peptide”.

With “Cyclo(1,5)SHAVS (head to tail) [HAVN2, N-to-C-termini cyclo-pentapeptide derived from HAV6]” the “BBB modulatory activity / IgG mAb brain delivery compared to HAV6, in words” value (brains of C57BL/6 mice; 13 µmol/kg peptide, 15 min) was “significantly enhanced; also recorded: improvement in the BBB modulatory activity; also recorded: better BBB modulatory effects than their linear counterpart, HAV6”, the “BBB modulatory activity compared to HAVN1, in words” value (brains of C57BL/6 mice; 13 µmol/kg peptide, 15 min) was “removal of one serine residue did not influence the BBB modulatory activity of HAVN2 compared to HAVN1” and the “amount of IgG mAb in the brain” value (brains of C57BL/6 mice) was 8.8 ± 0.6 pmol/g brain. The “brain delivery of IgG mAb compared to control (IgG mAb alone), in words” value (brains of C57BL/6 mice; 15 min) was “significantly enhanced”.

B1: Cyclic ADTC5 (peptide)
peptide: Ac-CDTPPVC-NH2
modifications: disulfide 1-7
SMILES: CC(=O)N[C@H]1CSSC[C@@H](C(N)=O)NC(=O)[C@H](C(C)C)NC(=O)[C@@H]2CCCN2C(=O)[C@@H]2CCCN2C(=O)[C@H]([C@@H](C)O)NC(=O)[C@H](CC(=O)O)NC1=O
B1 showed a Kd (EC1 domain of E-cadherin [2]) of 26.8 µM.

Work on TPPVSHAV (cyclo(1,8): N-to-C terminal peptide bond) [Cyclic ADTHAV] yielded a Kd (EC1 domain of E-cadherin [2]) of 0.114 µM.
